Experimental data taken from publication PMC9331314, “Synthesis and Antiviral Properties of Camphor-Derived Iminothiazolidine-4-Ones and 2,3-Dihydrothiazoles” (Molecules, 2022).
Read-outs that look alike come from different tables or passages of the source.

Experiments:
[1] = system: Marburg pseudovirus (GP MARV); test: microbe, parasite or virus in culture; conditions: 24 h
[2] = system: Vero cells
[3] = system: vaccinia virus (strain Copenhagen)
[4] = in vitro; conditions: human
[5] = system: Marburg pseudovirus (GP MARV)
[6] = system: vaccinia virus (strain Copenhagen); test: microbe, parasite or virus in culture; conditions: Orthopoxvirus vaccinia, Vero, 96 h
[7] = in vitro; conditions: African green monkey
[8] = system: HEK293FT cells

**Q.** Which IC50 [1] does the source give for `CNC(=S)N/N=C1\C[C@@H]2CC[C@@]1(C)C2(C)C` [2′d, (E)-N-methyl-2-((1S,4S)-1,7,7-trimethylbicyclo[2.2.1]heptan-2-ylidene)hydrazinecarbothioamide] here?
**A.** Its IC50 is 29.2 ± 4.2 µM.

**Q.** What about the CC50 [2] of the same compound?
**A.** Its CC50 is “least cytotoxicity”.

**Q.** What about the IC50 [3] of the same compound?
**A.** Its IC50 is “low”.

**Q.** What about the “SI (CC50/IC50)” value [3] of the same compound?
**A.** Its value is 5.

**Q.** And the CC50 [4]?
**A.** The CC50 was 66.9 ± 18.2 µM.

**Q.** And the “SI (CC50/IC50)” value [5]?
**A.** The value was 2.

**Q.** What about the IC50 [6] of the same compound?
**A.** Its IC50 is 35 ± 5.8 µM.

**Q.** And the CC50 [7]?
**A.** The CC50 was 130 ± 14.2 µM.

**Q.** For `CC1(C)[C@@H]2CC[C@@]1(C)/C(=N/NC(=S)Nc1ccccc1)C2` [Compound 2a, (E)-N-phenyl-2-((1R,4R)-1,7,7-trimethylbicyclo[2.2.1]heptan-2-ylidene)hydrazinecarbothioamide], which IC50 [1] is on record?
**A.** Its IC50 is 398 ± 33.2 µM.

**Q.** And the CC50 [2]?
**A.** Its CC50 is “quite toxic”.

**Q.** And the IC50 [3]?
**A.** Its IC50 is “lower micromolar range”.

**Q.** And the “SI (CC50/IC50)” value [3]?
**A.** The value was 4.

**Q.** And the CC50 [4]?
**A.** Its CC50 is 700 ± 43.1 µM.

**Q.** And the “SI (CC50/IC50)” value [5]?
**A.** Its value is 2.

**Q.** And the IC50 [6]?
**A.** Its IC50 is 6.7 ± 0.9 µM.

**Q.** And the CC50 [7]?
**A.** Its CC50 is 24 ± 3.4 µM.

**Q.** Which IC50 [1] does the source give for `CNC(=S)N/N=C1\C[C@H]2CC[C@]1(C)C2(C)C` [Compound 2d, (E)-N-methyl-2-((1R,4R)-1,7,7-trimethylbicyclo[2.2.1]heptan-2-ylidene)hydrazinecarbothioamide] here?
**A.** Its IC50 is 28 ± 4.2 µM.

**Q.** And the CC50 [2]?
**A.** The CC50 was “least cytotoxicity”.

**Q.** What about the IC50 [3] of the same compound?
**A.** Its IC50 is “low”.

**Q.** What about the “SI (CC50/IC50)” value [3] of the same compound?
**A.** The value was 2.

**Q.** And the CC50 [4]?
**A.** The CC50 was 62.8 ± 17.1 µM.

**Q.** And the IC50 [6]?
**A.** The IC50 was 97 ± 19.8 µM.

**Q.** What about the CC50 [7] of the same compound?
**A.** The CC50 was 150 ± 17.9 µM.

**Q.** Which results are given for `CC12CCC(CC1=NN=C1SCC(=O)N1c1ccccc1)C2(C)C` [Compound 3a, ((Z)-3-phenyl-2-((E)-((1R,4R)-1,7,7-trimethylbicyclo[2.2.1]heptan-2-ylidene)hydrazono)thiazolidin-4-one]?
**A.** IC50 [1]: 237 ± 5.9 µM; CC50 [8]: least toxicity; CC50 [4]: 1260 ± 52.7 µM; SI (CC50/IC50) [5]: 5; CC50 [7]: 290 ± 39.1 µM

**Q.** Which results are given for `C=CCN1C(=O)C(C)(C)S/C1=N/N=C1/C[C@H]2CC[C@]1(C)C2(C)C` [Compound 4b, (Z)-3-allyl-5,5-dimethyl-2-((E)-((1R,4R)-1,7,7-trimethylbicyclo[2.2.1]heptan-2-ylidene)hydrazono)thiazolidin-4-one]?
**A.** IC50 [1]: 255 ± 45 µM; CC50 [8]: least toxicity; CC50 [4]: 959.5 ± 6.8 µM; SI (CC50/IC50) [5]: 4

**Q.** For `CN1C(=O)C(C)(C)S/C1=N/N=C1/C[C@H]2CC[C@]1(C)C2(C)C` [Compound 4d, (Z)-3,5,5-trimethyl-2-((E)-((1R,4R)-1,7,7-trimethylbicyclo[2.2.1]heptan-2-ylidene)hydrazono)thiazolidin-4-one], which IC50 [1] is on record?
**A.** The IC50 was 39 ± 3.3 µM.

**Q.** What about the CC50 [2] of the same compound?
**A.** The CC50 was “low toxicity”.

**Q.** What about the IC50 [3] of the same compound?
**A.** Its IC50 is “highest activity”.

**Q.** And the “SI (CC50/IC50)” value [3]?
**A.** The value was 24.

**Q.** And the CC50 [4]?
**A.** Its CC50 is 514 ± 34.1 µM.

**Q.** What about the “SI (CC50/IC50)” value [5] of the same compound?
**A.** The value was 13.

**Q.** What about the IC50 [6] of the same compound?
**A.** Its IC50 is 12.7 ± 1.4 µM.

**Q.** And the CC50 [7]?
**A.** The CC50 was 310 ± 38.7 µM.

**Q.** Which IC50 [1] does the source give for `CC1(C)[C@@H]2CC[C@@]1(C)/C(=N/N=c1/scc(-c3ccc(Cl)cc3)n1-c1ccccc1)C2` [Compound 5a, (E)-4-(4-chlorophenyl)-3-phenyl-2-((E)-((1R,4R)-1,7,7-trimethylbicyclo[2.2.1]heptan-2-ylidene)hydrazono)-2,3-dihydrothiazole] here?
**A.** The IC50 was 103 ± 6.9 µM.

**Q.** What about the CC50 [8] of the same compound?
**A.** The CC50 was “least toxicity”.

**Q.** And the CC50 [4]?
**A.** Its CC50 is 872 ± 52.8 µM.

**Q.** What about the “SI (CC50/IC50)” value [5] of the same compound?
**A.** The value was 8.

**Q.** What about the CC50 [7] of the same compound?
**A.** The CC50 was 229 ± 24.7 µM.
